# Results from patent US20230085307A1, “PYRIDAZINONE COMPOUND AND HERBICIDE” (NISSAN CHEMICAL CORPORATION, priority 2019, published 2023).
# Columns and labels:
# barnyard grass [1] = experiment: Test Example 3: herbicidal effect by foliage application, Wagner pot (Table 18, symbol H); type: in vivo, barnyard grass (Echinochloa crus-galli)
# Method in brief: (§1)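 Plants were sown in alluvial soil held under 0.1–0.5 cm standing water and grown 14 days in a greenhouse at 25–30 °C. An emulsifiable formulation, water-diluted to the set dose, was then sprayed onto the foliage, and effects were scored three weeks later using previously defined criteria.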
# Chinese sprangletop = experiment: Test Example 3: herbicidal effect by foliage application, Wagner pot (Table 18, symbol D); type: in vivo, chinese sprangletop (Leptochloa chinensis)
# Method in brief: as §1
# rice flat sedge = experiment: Test Example 3: herbicidal effect by foliage application, Wagner pot (Table 18, symbol E); type: in vivo, rice flat sedge (Cyperus iria)
# Method in brief: as §1
# southern crabgrass [2] = experiment: Test Example 4: herbicidal effect by soil treatment (Table 19, symbol F); type: in vivo, southern crabgrass (Digitaria ciliaris)
# Method in brief: (§2)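 Pre-emergence style soil spray: seeds under ~1.5 cm sterilized diluvial soil received a uniform coat of emulsion diluted to the predetermined herbicide amount. Greenhouse 25–30° C; readout at week three on previously defined criteria.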
# green foxtail [3] = experiment: Test Example 4: herbicidal effect by soil treatment (Table 19, symbol G); type: in vivo, green foxtail (Setaria viridis)
# Method in brief: as §2
# barnyard grass [4] = experiment: Test Example 4: herbicidal effect by soil treatment (Table 19, symbol H); type: in vivo, barnyard grass (Echinochloa crus-galli)
# Method in brief: as §2
# wild oat [5] = experiment: Test Example 4: herbicidal effect by soil treatment (Table 19, symbol I); type: in vivo, wild oat (Avena fatua)
# Method in brief: as §2
# blackgrass [6] = experiment: Test Example 4: herbicidal effect by soil treatment (Table 19, symbol J); type: in vivo, blackgrass (Alopecurus myosuroides)
# From the text: (§3) [Test Example 4] Herbicidal Effect Test by Soil Treatment
# (§4) Sterilized diluvial soil was placed in a plastic box having a length of 21 cm, a width of 13 cm, and a depth of 7 cm. The seeds of each of southern crabgrass, green foxtail, barnyard grass, wild oat, blackgrass, Italian ryegrass, windgrass, velvetleaf, redroot pigweed, lambsquarters, chickweed, false cleavers, persian speedwell, corn, soybean, rice, wheat, beet, and rapeseed were sowed in a spot-like manner and covered with the soil having a thickness of about 1.5 cm. Subsequently, the emulsion agent of the compound of the present invention prepared according to Formulation Example 2 was diluted with water so as to achieve a predetermined herbicide amount, and the diluted emulsion agent was uniformly applied to the surface of the soil with a small-sized spray. The plastic box was placed in a greenhouse at 25° C. to 30° C. for growth of the plants. Three weeks after the herbicide application, the effect of the herbicide on each plant was evaluated according to the criteria of Test Example 1.
# Italian ryegrass [7] = experiment: Test Example 4: herbicidal effect by soil treatment (Table 19, symbol K); type: in vivo, Italian ryegrass (Lolium multiflorum)
# Method in brief: as §2
# windgrass [8] = experiment: Test Example 4: herbicidal effect by soil treatment (Table 19, symbol L); type: in vivo, windgrass (Apera spica-venti); conditions: amount of applied herbicide 320 g/ha
# Method in brief: as §2
# velvetleaf [9] = experiment: Test Example 4: herbicidal effect by soil treatment (Table 19, symbol M); type: in vivo, velvetleaf (Abutilon theophrasti)
# Method in brief: as §2
# redroot pigweed [10] = experiment: Test Example 4: herbicidal effect by soil treatment (Table 19, symbol N); type: in vivo, redroot pigweed (Amaranthus retroflexus)
# Method in brief: as §2
# lambsquarters [11] = experiment: Test Example 4: herbicidal effect by soil treatment (Table 19, symbol O); type: in vivo, lambsquarters (Chenopodium album)
# Method in brief: as §2
# chickweed [12] = experiment: Test Example 4: herbicidal effect by soil treatment (Table 19, symbol P); type: in vivo, common chickweed (Stellaria media)
# From the text: as §3, §4
# southern crabgrass [13] = experiment: Test Example 5: herbicidal effect by foliage application, plastic box (Table 20, symbol F); type: in vivo, southern crabgrass (Digitaria ciliaris); conditions: foliage application, AAH 320 g/ha, evaluated three weeks after application
# Method in brief: (§5)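 Plants were sown into sterilized diluvial soil under about 1.5 cm cover and kept in a greenhouse at 25° C. to 30° C. Fourteen days on, foliage received an even spray of the diluted emulsion. Herbicidal or crop effect was judged three weeks afterwards.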
# green foxtail [14] = experiment: Test Example 5: herbicidal effect by foliage application, plastic box (Table 20, symbol G); type: in vivo, green foxtail (Setaria viridis); conditions: foliage application, AAH 320 g/ha, evaluated three weeks after application
# Method in brief: as §5
# barnyard grass [15] = experiment: Test Example 5: herbicidal effect by foliage application, plastic box (Table 20, symbol H); type: in vivo, barnyard grass (Echinochloa crus-galli); conditions: foliage application, AAH 320 g/ha, evaluated three weeks after application
# Method in brief: as §5
# wild oat [16] = experiment: Test Example 5: herbicidal effect by foliage application, plastic box (Table 20, symbol I); type: in vivo, wild oat (Avena fatua); conditions: foliage application, AAH 320 g/ha, evaluated three weeks after application
# Method in brief: as §5
# blackgrass [17] = experiment: Test Example 5: herbicidal effect by foliage application, plastic box (Table 20, symbol J); type: in vivo, blackgrass (Alopecurus myosuroides); conditions: foliage application, AAH 320 g/ha, evaluated three weeks after application
# Method in brief: as §5
# Italian ryegrass [18] = experiment: Test Example 5: herbicidal effect by foliage application, plastic box (Table 20, symbol K); type: in vivo, Italian ryegrass (Lolium multiflorum); conditions: foliage application, AAH 320 g/ha, evaluated three weeks after application
# Method in brief: as §5
# windgrass [19] = experiment: Test Example 5: herbicidal effect by foliage application, plastic box (Table 20, symbol L); type: in vivo, windgrass (Apera spica-venti); conditions: foliage application, AAH 320 g/ha, evaluated three weeks after application
# Method in brief: as §5
# velvetleaf [20] = experiment: Test Example 5: herbicidal effect by foliage application, plastic box (Table 20, symbol M); type: in vivo, velvetleaf (Abutilon theophrasti); conditions: foliage application, AAH 320 g/ha, evaluated three weeks after application
# Method in brief: as §5
# redroot pigweed [21] = experiment: Test Example 5: herbicidal effect by foliage application, plastic box (Table 20, symbol N); type: in vivo, redroot pigweed (Amaranthus retroflexus); conditions: foliage application, AAH 320 g/ha, evaluated three weeks after application
# Method in brief: as §5
# lambsquarters [22] = experiment: Test Example 5: herbicidal effect by foliage application, plastic box (Table 20, symbol O); type: in vivo, lambsquarters (Chenopodium album); conditions: foliage application, AAH 320 g/ha, evaluated three weeks after application
# Method in brief: as §5
# chickweed [23] = experiment: Test Example 5: herbicidal effect by foliage application, plastic box (Table 20, symbol P); type: in vivo, common chickweed (Stellaria media); conditions: foliage application, AAH 320 g/ha, evaluated three weeks after application
# Method in brief: as §5
# persian speedwell [24] = experiment: Test Example 5: herbicidal effect by foliage application, plastic box (Table 20, symbol R); type: in vivo, Persian speedwell (Veronica persica); conditions: foliage application, AAH 320 g/ha, evaluated three weeks after application
# Method in brief: as §5
# persian speedwell [25] = experiment: Test Example 4: herbicidal effect by soil treatment (Table 19, symbol R); type: in vivo, Persian speedwell (Veronica persica); conditions: amount of applied herbicide 280 g/ha
# From the text: as §3, §4
# [26] = amount of applied herbicide 320 g/ha
# [27] = amount of applied herbicide 280 g/ha
structure (smiles),measurement,setting,value
COCCSc1ccc(-c2sc3ccc(F)cc3c2-c2c(O)c(C)nn(C)c2=O)cc1 [2-265],herbicidal effect on H: barnyard grass,barnyard grass [1]; [26],5 (Herbicidal rate of 90% or more (almost completely withered))
same,herbicidal effect on D: Chinese sprangletop,Chinese sprangletop; [26],4 (Herbicidal rate of 70% or more and less than 90%)
same,herbicidal effect on E: rice flat sedge,rice flat sedge; [26],5 (Herbicidal rate of 90% or more (almost completely withered))
same,herbicidal effect on F: southern crabgrass,southern crabgrass [2]; [26],3 (Herbicidal rate of 40% or more and less than 70%)
same,herbicidal effect on G: green foxtail,green foxtail [3]; [26],4 (Herbicidal rate of 70% or more and less than 90%)
same,herbicidal effect on H: barnyard grass,barnyard grass [4]; [26],2 (Herbicidal rate of 20% or more and less than 40%)
same,herbicidal effect on I: wild oat,wild oat [5]; [26],0 (Herbicidal rate of 5% or less (almost no effect))
same,herbicidal effect on J: blackgrass,blackgrass [6]; [26],0 (Herbicidal rate of 5% or less (almost no effect))
same,herbicidal effect on K: Italian ryegrass,Italian ryegrass [7]; [26],0 (Herbicidal rate of 5% or less (almost no effect))
same,herbicidal effect on L: windgrass,windgrass [8],0 (Herbicidal rate of 5% or less (almost no effect))
same,herbicidal effect on M: velvetleaf,velvetleaf [9]; [26],3 (Herbicidal rate of 40% or more and less than 70%)
same,herbicidal effect on N: redroot pigweed,redroot pigweed [10]; [26],5 (Herbicidal rate of 90% or more (almost completely withered))
same,herbicidal effect on O: lambsquarters,lambsquarters [11]; [26],4 (Herbicidal rate of 70% or more and less than 90%)
same,herbicidal effect on P: chickweed,chickweed [12]; [26],0 (Herbicidal rate of 5% or less (almost no effect))
same,"F: southern crabgrass, herbicidal effect (criteria 0-5)",southern crabgrass [13],4 (Herbicidal rate of 70% or more and less than 90%)
same,"G: green foxtail, herbicidal effect (criteria 0-5)",green foxtail [14],5 (Herbicidal rate of 90% or more (almost completely withered))
same,"H: barnyard grass, herbicidal effect (criteria 0-5)",barnyard grass [15],4 (Herbicidal rate of 70% or more and less than 90%)
same,"I: wild oat, herbicidal effect (criteria 0-5)",wild oat [16],3 (Herbicidal rate of 40% or more and less than 70%)
same,"J: blackgrass, herbicidal effect (criteria 0-5)",blackgrass [17],0 (Herbicidal rate of 5% or less (almost no effect))
same,"K: Italian ryegrass, herbicidal effect (criteria 0-5)",Italian ryegrass [18],2 (Herbicidal rate of 20% or more and less than 40%)
same,"L: windgrass, herbicidal effect (criteria 0-5)",windgrass [19],0 (Herbicidal rate of 5% or less (almost no effect))
same,"M: velvetleaf, herbicidal effect (criteria 0-5)",velvetleaf [20],5 (Herbicidal rate of 90% or more (almost completely withered))
same,"N: redroot pigweed, herbicidal effect (criteria 0-5)",redroot pigweed [21],5 (Herbicidal rate of 90% or more (almost completely withered))
same,"O: lambsquarters, herbicidal effect (criteria 0-5)",lambsquarters [22],4 (Herbicidal rate of 70% or more and less than 90%)
same,"P: chickweed, herbicidal effect (criteria 0-5)",chickweed [23],5 (Herbicidal rate of 90% or more (almost completely withered))
same,"R: persian speedwell, herbicidal effect (criteria 0-5)",persian speedwell [24],5 (Herbicidal rate of 90% or more (almost completely withered))
COc1cccc(-c2sc3ccc(F)cc3c2-c2c(O)c(C)nn(C)c2=O)n1 [2-382],herbicidal effect on H: barnyard grass,barnyard grass [1]; [27],0 (Herbicidal rate of 5% or less (almost no effect))
same,herbicidal effect on D: Chinese sprangletop,Chinese sprangletop; [27],0 (Herbicidal rate of 5% or less (almost no effect))
same,herbicidal effect on E: rice flat sedge,rice flat sedge; [27],3 (Herbicidal rate of 40% or more and less than 70%)
same,"herbicidal effect, F: southern crabgrass",southern crabgrass [2]; [27],0 (Herbicidal rate of 5% or less (almost no effect))
same,"herbicidal effect, G: green foxtail",green foxtail [3]; [27],0 (Herbicidal rate of 5% or less (almost no effect))
same,"herbicidal effect, H: barnyard grass",barnyard grass [4]; [27],1 (Herbicidal rate of 5% or more and less than 20%)
same,"herbicidal effect, I: wild oat",wild oat [5]; [27],0 (Herbicidal rate of 5% or less (almost no effect))
same,"herbicidal effect, J: blackgrass",blackgrass [6]; [27],0 (Herbicidal rate of 5% or less (almost no effect))
same,"herbicidal effect, K: Italian ryegrass",Italian ryegrass [7]; [27],1 (Herbicidal rate of 5% or more and less than 20%)
same,"herbicidal effect, M: velvetleaf",velvetleaf [9]; [27],1 (Herbicidal rate of 5% or more and less than 20%)
same,"herbicidal effect, N: redroot pigweed",redroot pigweed [10]; [27],4 (Herbicidal rate of 70% or more and less than 90%)
same,"herbicidal effect, O: lambsquarters",lambsquarters [11]; [27],4 (Herbicidal rate of 70% or more and less than 90%)
same,"herbicidal effect, P: chickweed",chickweed [12]; [27],4 (Herbicidal rate of 70% or more and less than 90%)
same,"herbicidal effect, R: persian speedwell",persian speedwell [25],4 (Herbicidal rate of 70% or more and less than 90%)
